# Experimental data taken from US20110039762A1, “TARGETED ANTIMICROBIAL MOIETIES” (C3 JIAN, INC., priority 2009, published 2011).
# Entries after “also recorded” stand apart in the source; their conditions may differ.
# What was measured:
# C. jeikeium = experiment: Kill or inhibit growth/proliferation; morphology, biofilm and growth disruption (Tables 5, 6); type: cell-based, Corynebacterium jeikeium; design: key: A: Peptide aggregates; B: Less hyphal formation; Clumps; Diffuse clumps and small polyps; F: Diffuse growth; H: Thin; I: Growth inhibition; Microcolony formation; Rippled; Small polyps; Thick; W: Halo formation on top, microlonies on bottom; also: test concentration or dose not given here
# C. jejuni = experiment: as above; type: cell-based, Campylobacter jejuni; design: key: A: Peptide aggregates; B: Less hyphal formation; Clumps; Diffuse clumps and small polyps; F: Diffuse growth; H: Thin; I: Growth inhibition; Microcolony formation; Rippled; Small polyps; Thick; W: Halo formation on top, microlonies on bottom; also: test concentration or dose not given here
# B. subtilis = experiment: as above; type: cell-based, Bacillus subtilis; design: key: A: Peptide aggregates; B: Less hyphal formation; Clumps; Diffuse clumps and small polyps; F: Diffuse growth; H: Thin; I: Growth inhibition; Microcolony formation; Rippled; Small polyps; Thick; W: Halo formation on top, microlonies on bottom
# S. epidermidis = experiment: as above; type: cell-based, Staphylococcus epidermidis; design: key: A: Peptide aggregates; B: Less hyphal formation; Clumps; Diffuse clumps and small polyps; F: Diffuse growth; H: Thin; I: Growth inhibition; Microcolony formation; Rippled; Small polyps; Thick; W: Halo formation on top, microlonies on bottom
# MRSA = experiment: as above; type: cell-based, Methicillin-resistant Staphylococcus aureus; design: key: A: Peptide aggregates; B: Less hyphal formation; Clumps; Diffuse clumps and small polyps; F: Diffuse growth; H: Thin; I: Growth inhibition; Microcolony formation; Rippled; Small polyps; Thick; W: Halo formation on top, microlonies on bottom
# microorganisms = experiment: Peptides having multiple activities (targeting/binding, antimicrobial, growth or phenotype altering)
# Source text: In certain embodiments, peptides described herein can have multiple activities. Thus for example, a peptide can have both binding/targeting activity and antimicrobial activity. Such peptides can be used, e.g., in a chimeric construct, for any or all of these properties. Thus, for example, a peptide designated “B” in Table 8 can be used as a targeting peptide. If it is also designated G or M it can also be used for antimicrobial activity.
# M. luteus = experiment: Kill or inhibit growth/proliferation; morphology, biofilm and growth disruption (Tables 5, 6); type: cell-based, Micrococcus luteus; design: key: A: Peptide aggregates; B: Less hyphal formation; Clumps; Diffuse clumps and small polyps; F: Diffuse growth; H: Thin; I: Growth inhibition; Microcolony formation; Rippled; Small polyps; Thick; W: Halo formation on top, microlonies on bottom; also: test concentration or dose not given here
# S. pneumoniae = experiment: as above; type: cell-based, Streptococcus pneumoniae; design: key: A: Peptide aggregates; B: Less hyphal formation; Clumps; Diffuse clumps and small polyps; F: Diffuse growth; H: Thin; I: Growth inhibition; Microcolony formation; Rippled; Small polyps; Thick; W: Halo formation on top, microlonies on bottom
# [1] = system: microorganisms (e.g., bacteria, yeasts, fungi); experiment: Targeting peptide binding to target microorganisms (Table 3); conditions: preferably 1x PBS; for Target(s): microorganism(s) the targeting peptide binds, peptide binding conducted in aqueous buffers varied by peptide solubility; for Target(s) (microorganisms bound by the targeting peptide): peptide binding in aqueous buffers varied by peptide solubility
# E. faecalis = experiment: Kill or inhibit growth/proliferation; morphology, biofilm and growth disruption (Tables 5, 6); type: cell-based, Enterococcus faecalis; design: key: A: Peptide aggregates; B: Less hyphal formation; Clumps; Diffuse clumps and small polyps; F: Diffuse growth; H: Thin; I: Growth inhibition; Microcolony formation; Rippled; Small polyps; Thick; W: Halo formation on top, microlonies on bottom; also: test concentration or dose not given here
# C. albicans = experiment: as above; type: cell-based, Candida albicans; design: key: A: Peptide aggregates; B: Less hyphal formation; Clumps; Diffuse clumps and small polyps; F: Diffuse growth; H: Thin; I: Growth inhibition; Microcolony formation; Rippled; Small polyps; Thick; W: Halo formation on top, microlonies on bottom
# For Organism, effect (morphology, biofilm and growth disruption) in this document: test concentration or dose not given here.
# For Organism, effect in this document: test concentration or dose not given here.
Substance,"Organism, effect (C. jeikeium)","Organism, effect (B. subtilis)","Organism, effect (MRSA)",Activities (microorganisms),"Organism, effect (S. pneumoniae)",Target(s) (microorganisms bound by the targeting peptide) [1],"Organism, effect (C. albicans)","Organism, effect (morphology, biofilm and growth disruption) (S. pneumoniae)",further results
PF-145: peptide having multiple activities (GIVLTGRAGLVSGACSMALGVGLG; Peptide with targeting and/or antimicrobial activity),C. jeikeium (R),B. subtilis (C),MRSA (M),G B,S. pneumoniae (R),,,,"Organism, effect (C. jejuni): C. jejuni (R); Organism, effect (S. epidermidis): S. epidermidis (D); Organism, effect (M. luteus): M. luteus (A)"
PF-548: peptide having multiple activities (chain 1 ARPIADLIHFNSTTVTASGDVYYGPG; chain 2 ARPIADLIHFNSTTVTASGDVYYGPG; Peptide with targeting and/or antimicrobial activity),C. jeikeium (R),B. subtilis (C),MRSA (M),G B,S. pneumoniae (D),,,,"Organism, effect (C. jejuni): C. jejuni (D); Organism, effect (S. epidermidis): S. epidermidis (M); Organism, effect (M. luteus): M. luteus (A)"
PF-553: peptide having multiple activities (chain 1 LTIVGNALQQKNQKLLLNQKKITSLG; chain 2 LTIVGNALQQKNQKLLLNQKKITSLG; Peptide with targeting and/or antimicrobial activity),C. jeikeium (R),B. subtilis (D),MRSA (M),G B,S. pneumoniae (R),,,,Target(s) [1]: S. epidermidis and E. coli and P. aeruginosa and C. albicans and MRSA and S. pneumoniae and C. jeikeium
PF-556: peptide having multiple activities (chain 1 SLQIRMNTLTAAKASIEAA; chain 2 SLQIRMNTLTAAKASIEAA; Peptide with targeting and/or antimicrobial activity),C. jeikeium (D),B. subtilis (C),MRSA (M),G B,S. pneumoniae (D),,,,"Organism, effect (C. jejuni): C. jejuni (R); Organism, effect (S. epidermidis): S. epidermidis (A); Organism, effect (M. luteus): M. luteus (A); Organism, effect (E. faecalis): E. faecalis (A)"
PF-564: peptide having multiple activities (chain 1 TIILNDQINSLQERLNKLNAETDRR; chain 2 TIILNDQINSLQERLNKLNAETDRR; Peptide with targeting and/or antimicrobial activity),C. jeikeium (R),B. subtilis (D),MRSA (C),G B,,,,,"Target(s) [1]: S. epidermidis; also recorded: C. albicans; also recorded: S. pneumoniae; also recorded: C. jeikeium; Organism, effect (C. jejuni): C. jejuni (R)"
PF-566: peptide having multiple activities (chain 1 EAQQVTQQLGADFNAITTPTATKV; chain 2 EAQQVTQQLGADFNAITTPTATKV; Peptide with targeting and/or antimicrobial activity),C. jeikeium (C),B. subtilis (C),MRSA (M),G B,S. pneumoniae (D),,,,"Target(s) [1]: P. mirabilis; also recorded: S. pneumoniae; Organism, effect (C. jejuni): C. jejuni (D); Organism, effect (M. luteus): M. luteus (D)"
PF-617: peptide having multiple activities (PMNAAEPE; Peptide with targeting and/or antimicrobial activity),,,,G B,S. pneumoniae (I),P. aeruginosa; also recorded: C. albicans,C. albicans (H),,"Organism, effect (E. faecalis): E. faecalis (H)"
PF-627: peptide having multiple activities (INDLLSYFTLHEK; Peptide with targeting and/or antimicrobial activity),,,MRSA (R),G B,S. pneumoniae (I),S. epidermidis and P. aeruginosa and MRSA and S. pneumoniae and E. faecalis and C. jeikeium,C. albicans (B),,"Organism, effect (S. epidermidis): S. epidermidis (H); Organism, effect (E. faecalis): E. faecalis (H)"
PF-639: peptide having multiple activities (chain 1 QATQIKSWIDRLLVSED; chain 2 QATQIKSWIDRLLVSED; Peptide with targeting and/or antimicrobial activity),,,MRSA (R),G B,S. pneumoniae (I),S. pneumoniae; also recorded: C. jeikeium,C. albicans (B),,"Organism, effect (E. faecalis): E. faecalis (H)"
PF-640: peptide having multiple activities (chain 1 MGDINRNF; chain 2 MGDINRNF; Peptide with targeting and/or antimicrobial activity),,,,G B,S. pneumoniae (I),C. albicans,C. albicans (B),,"Organism, effect (E. faecalis): E. faecalis (H)"
PF-645 (chain 1 SNSVQQG; chain 2 SNSVQQG; Peptide with targeting and/or antimicrobial activity),,,,,S. pneumoniae (I),Mycobacteria spp,C. albicans (B),,
PF-646 (chain 1 APASPGRRPG; chain 2 APASPGRRPG; Peptide with targeting and/or antimicrobial activity),,,,,,Mycobacteria spp,C. albicans (B),S. pneumoniae (H),
PF-647 (chain 1 GTFLGQKCAAATAS; chain 2 GTFLGQKCAAATAS; Peptide with targeting and/or antimicrobial activity),,,,,,Mycobacteria spp,,S. pneumoniae (R),"Organism, effect (morphology, biofilm and growth disruption) (C. albicans): C. albicans (B)"
PF-654 (chain 1 LSGRLAGRR; chain 2 LSGRLAGRR; Peptide with targeting and/or antimicrobial activity),,,,,,Mycobacteria spp,,S. pneumoniae (A),"Organism, effect (morphology, biofilm and growth disruption) (C. albicans): C. albicans (B); Organism, effect (morphology, biofilm and growth disruption) (MRSA): MRSA (R)"
PF-684 (chain 1 RKLSLASGFALWRRSLV; chain 2 RKLSLASGFALWRRSLV; Peptide with targeting and/or antimicrobial activity),,,,,,Mycobacteria spp,,S. pneumoniae (C),"Organism, effect (morphology, biofilm and growth disruption) (C. albicans): C. albicans (B); Organism, effect (morphology, biofilm and growth disruption) (E. faecalis): E. faecalis (A)"
PF-697 (chain 1 RADARAK; chain 2 RADARAK; Peptide with targeting and/or antimicrobial activity),,,,,,Mycobacteria spp,,S. pneumoniae (H),"Organism, effect (morphology, biofilm and growth disruption) (C. albicans): C. albicans (H)"
PF-698 (chain 1 SSGRAGVKCRRPTGR; chain 2 SSGRAGVKCRRPTGR; Peptide with targeting and/or antimicrobial activity),,,,,,Mycobacteria spp,,S. pneumoniae (A),"Organism, effect (morphology, biofilm and growth disruption) (C. albicans): C. albicans (H); Organism, effect (morphology, biofilm and growth disruption) (E. faecalis): E. faecalis (A)"
